Source: paper PMC6891447, “Andean Prumnopitys Andina (Podocarpacae) Fruit Extracts: Characterization of Secondary Metabolites and Potential Cytoprotective Effect” (Molecules, 2019)
Read-outs that look alike come from different tables or passages of the source. Blank lines part the entries; values can stand above or below the molecule they belong to.

How the values were obtained:
[1] = DPPH radical discoloration (scavenging) assay; type: physicochemical
Method: (§1) The antioxidant capacity of the extracts was evaluated by the discoloration of the DPPH radical, the ferric reducing power (FRAP), the scavenging of the ABTS radical (TEAC) and the oxygen radical absorbance capacity (ORAC). […] Trolox and quercetin were used as reference compounds. The DPPH, FRAP and TEAC assays were performed according to Jiménez-Aspee et al.. The ORAC assay was carried out following the methodology of Ou et al. with slight modifications. All determinations were carried out in triplicate and results are presented as mean values ± standard deviation (SD).

[2] = Ferric reducing power (FRAP) assay; type: physicochemical
Method: as §1

[3] = Scavenging of the ABTS radical (TEAC) assay; type: physicochemical
Method: as §1

[4] = Oxygen radical absorbance capacity (ORAC) assay; type: physicochemical
Method: as §1

α-glucosidase = α-glucosidase (Saccharomyces cerevisiae, UniProt P53341); experiment: α-Glucosidase inhibition assay; type: biochemical; details: read-out: α-Glucosidase Inhibition (percentage of inhibition)
From the text: The chemicals, enzymes and reagents acquired from Sigma-Aldrich (St. Louis, MO, USA) were the following: α-amylase from porcine pancreas (A3176; EC 3.2.1.1), α-glucosidase from Saccharomyces cerevisiae (G5003; EC 3.2.1.20), acetic acid, AlCl3, Amberlite XAD7 HP, catechin, DPPH (2,2-diphenyl-1-picrylhydrazyl radical), 3,5-dinitrosalicylic acid, porcine pancreas lipase type II (L-3126; EC 3.1.1.3), Na2CO3, 4-nitrophenyl-α-D-glucopyranoside, p-nitrophenyl palmitate, p-anisaldehyde, quercetin, sodium acetate, starch, 2,4,6-tri(2-pyridyl)1,3,5-triazine (TPTZ), trichloracetic acid, thiobarbituric acid, and triton X-100. The following materials were purchased from Merck (Darmstadt, Germany): 6-hydroxy-2,5,7,8-tetramethylchroman-2-carboxylic acid (Trolox), ethyl acetate, FeCl3 × 6H2O, potassium sodium tartrate and HPLC-grade methanol. Pepsin A (P3271) was from US Biological (Salem, MA, USA). […]
Potential inhibition of α-glucosidase by XAD7 extracts and fractions from the LH-20 column was tested under conditions that simulate, at least in part, those of the small intestine. […] Resulting enzyme activity was then measured by adding 20 µL of 5 mM p-nitrophenyl-α-D-glucopyranoside into the wells and incubating for additional 15 min at 37 °C. […] Final absorbance was measured at 415 nm in a Biotek ELx801 (Winooski, VT, USA) microplate reader. […]

α-amylase = biological target: T1, α-amylase (Sus scrofa, UniProt P00690); experiment: α-Amylase inhibition assay; type: biochemical, porcine; details: Sephadex fractions
T1 construct: purchased Sigma-Aldrich A3176; host or cells: porcine pancreas
T1 sequence (P00690 16-511): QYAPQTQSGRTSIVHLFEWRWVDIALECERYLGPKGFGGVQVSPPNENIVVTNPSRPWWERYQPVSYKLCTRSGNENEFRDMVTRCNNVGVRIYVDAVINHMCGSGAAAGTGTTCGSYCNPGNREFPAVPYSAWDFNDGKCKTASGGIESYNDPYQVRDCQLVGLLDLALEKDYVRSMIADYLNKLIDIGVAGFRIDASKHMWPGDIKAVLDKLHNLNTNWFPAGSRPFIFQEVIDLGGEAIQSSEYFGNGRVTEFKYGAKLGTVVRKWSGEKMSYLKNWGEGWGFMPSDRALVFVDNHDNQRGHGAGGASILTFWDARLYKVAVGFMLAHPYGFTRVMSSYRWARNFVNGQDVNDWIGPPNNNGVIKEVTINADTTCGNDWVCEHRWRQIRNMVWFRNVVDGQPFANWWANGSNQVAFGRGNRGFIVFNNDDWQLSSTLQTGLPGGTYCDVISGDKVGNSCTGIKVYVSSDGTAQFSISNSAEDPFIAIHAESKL

pancreatic lipase = biological target: T2, pancreatic lipase (Sus scrofa, UniProt P00591); experiment: Pancreatic lipase inhibition assay; type: biochemical, porcine; details: Sephadex fractions
T2 construct: purchased Sigma-Aldrich L-3126; host or cells: porcine pancreas
T2 sequence (P00591 1-450): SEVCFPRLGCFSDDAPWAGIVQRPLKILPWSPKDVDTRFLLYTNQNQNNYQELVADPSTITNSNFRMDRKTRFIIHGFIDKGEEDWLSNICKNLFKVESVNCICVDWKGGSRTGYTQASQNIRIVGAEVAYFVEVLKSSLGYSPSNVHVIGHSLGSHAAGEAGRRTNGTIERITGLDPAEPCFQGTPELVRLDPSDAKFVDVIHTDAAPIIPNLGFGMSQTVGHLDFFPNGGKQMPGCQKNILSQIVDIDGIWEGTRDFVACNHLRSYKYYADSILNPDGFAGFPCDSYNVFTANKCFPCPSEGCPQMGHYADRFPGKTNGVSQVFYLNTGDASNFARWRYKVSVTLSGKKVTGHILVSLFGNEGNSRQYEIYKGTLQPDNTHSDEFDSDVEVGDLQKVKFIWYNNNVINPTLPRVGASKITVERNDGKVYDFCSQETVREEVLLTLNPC

[5] = TBARS generation in turkey meat under simulated gastric digestion; details: pH 3.0, 37 °C, 1 h
Method: This assay was carried out according to Kanner et al., with slight modifications. Briefly, the simulated gastric fluid (SGF) contained final concentration of NaCl (0.2% w/v), pepsin (0.32% w/v) and 700 µL of HCl (37%), adjusted to a final volume of 100 mL with ultrapure water. Thirty grams of turkey meat were ground with 90 mL of the SGF solution for 1 min in a blender and adjusted to pH 3.0 with 100 µL of 7N HCl. Fifteen mL of the SGF-meat mixture was aliquoted in 100 mL Erlenmeyer flasks. The powdered extract was weighed and added to the homogenate (meat–liquid mixture) to achieve final concentrations ranging from 0–500 µg/mL in the 15 mL SGF-meat mixture. The P. andina sample consisted in a pool of the extracts from different collection years. The flasks were placed in a shaking water bath at 37 °C during 1 h. At the end of the incubation, 800 µL of the samples, controls (without extracts) and blanks (without meat) were centrifuged at 20,000× g for 15 min at 4 °C. Lipid peroxidation was determined quantifying TBARS. For this purpose, the supernatant resulting from the centrifugation (750 µL) was mixed with 750 µL of TBA solution (0.37% TBA, 15% trichloroacetic acid in 0.25 N HCl), and boiled during 20 min. The absorbance was determined at 532 nm. All determinations were carried out in triplicate and results are presented as IC50 values (μg extracts/mL) ±SD. […]

AGS cells [6] = experiment: Cytoprotection against H2O2-induced stress in AGS cells; type: cell-based; details: Homo sapiens, rutin 100 µg/mL, non-significant, H2O2 control 47.4%, read-out: Cell viability after H2O2 challenge
Method: Human AGS gastric adenocarcinoma cells (ATCC CRL-1739, American Type Culture Collection, Manassas, VA, USA) were grown as monolayers in a humidified incubator with 5% CO2 in air at 37 °C in HamF-12 medium supplemented with 2 mM L-glutamine and 1.5 g/L sodium bicarbonate. The medium contained 10% heat inactivated fetal bovine serum (FBS), 100 IU/mL penicillin and 100 µg/mL streptomycin. Cells were plated at 25,000 cells/mL in 96-well plates, with 100 µL per well. Cells were counted by means of the trypan blue exclusion assay in a Neubauer chamber. All the cell-based experiments were carried out using a pool of the extracts from different collection years.
Confluent cultures of AGS cells were incubated for 16 h with 100 µL of the different samples at concentrations ranging from 0 to 400 µg extract/mL). The flavonol rutin (100 µg/mL) was included in this assay for comparison purposes. The sample was dissolved in medium supplemented with 2% FBS and antibiotics. Culture medium was completely removed by vacuum aspiration at the end of the incubation, and cells were washed with 100 µL of PBS. […] Cell viability was determined by means of the MTT reduction assay, as described above. […] Each concentration of the assayed samples was evaluated in quintuplicate. Results are expressed as percentage of the 100% viability control.

AGS cells [7] = experiment: Intracellular total antioxidant activity (TAA) in AGS cells; type: cell-based, human; details: rutin 100 µg/mL; non-significant
Method: The TAA was carried out according to Ferrari et al.. AGS cells were plated at 25,000 cells/mL in 3 cm diameter Petri dishes. One day after confluence, AGS cells were pre-incubated overnight (16 h) with 3 mL of the pool of P. andina XAD7 extracts, in different concentrations (0–400 µg extract/mL). For comparison purposes, rutin (100 µg/mL) was also included in this experiment. All samples were prepared in medium supplemented with 2% FBS. Cells treated only with culture medium were used as the control of the basal antioxidant level. The next morning, cells were collected with a cell scraper and centrifuged at 900× g during 5 min. […]
The ABTS radical was prepared by mixing 5 mL of a 7.46 mM ABTS solution with 88 μL of a 140 mM potassium persulfate solution. […] At the end of the incubation, the solution was diluted with MeOH until an absorbance value of 0.700 ± 0.050 at 734 nm was reached. […] After 6 min, absorbance was measured at 734 nm in a UV–Vis spectrophotometer. The absorbance was interpolated and converted to Trolox equivalents using a Trolox calibration curve. […] All the determinations were carried out in triplicate and results were expressed as µmol Trolox equivalents/mg protein ±SD.

α-glucosidase, sequence (P53341 whole entry): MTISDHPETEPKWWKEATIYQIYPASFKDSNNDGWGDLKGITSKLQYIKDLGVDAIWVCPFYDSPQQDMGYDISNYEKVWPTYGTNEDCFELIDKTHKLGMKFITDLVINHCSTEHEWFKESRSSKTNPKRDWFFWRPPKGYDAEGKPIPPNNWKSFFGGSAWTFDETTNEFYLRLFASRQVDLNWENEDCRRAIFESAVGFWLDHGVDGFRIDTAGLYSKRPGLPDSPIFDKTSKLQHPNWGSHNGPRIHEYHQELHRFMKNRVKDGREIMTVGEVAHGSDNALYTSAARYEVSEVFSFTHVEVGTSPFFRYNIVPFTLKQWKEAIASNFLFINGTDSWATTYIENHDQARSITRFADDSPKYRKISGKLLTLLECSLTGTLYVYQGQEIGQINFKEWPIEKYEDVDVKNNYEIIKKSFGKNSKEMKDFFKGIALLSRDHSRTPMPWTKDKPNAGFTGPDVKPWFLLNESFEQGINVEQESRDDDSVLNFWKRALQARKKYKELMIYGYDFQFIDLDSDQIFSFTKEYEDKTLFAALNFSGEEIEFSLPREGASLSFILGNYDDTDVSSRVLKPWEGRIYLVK

- inhibition at 50 µg/mL (α-glucosidase; at a concentration of 50 µg/mL, Sephadex fractions / isolated compounds): 40.1 ± 1.3%
- α-Amylase Inhibiton (α-amylase): inactive
- Pancreatic Lipase Inhibition (pancreatic lipase): inactive
SMILES: CC(C)(O)CC[C@@H](O)[C@](C)(O)[C@H]1CC[C@@]2(O)C3=CC(=O)[C@@H]4C[C@@H](O)[C@@H](O)C[C@]4(C)[C@H]3CC[C@]12C [20-hydroxyecdysone]
- DPPH assay activity ([1]; isolated compound): inactive
- FRAP value ([2]; isolated compound): 72.4 ± 7.9 µmol Trolox equivalents/g sample
- TEAC assay activity ([3]; isolated compound): inactive
- ORAC value ([4]; isolated compound): 827.3 ± 30.9 µmol TE/g of sample

SMILES: O=c1c(O)c(-c2ccc(O)c(O)c2)oc2cc(O)cc(O)c12 [Quercetin, quercetin, reference compound]
- DPPH (SC50) ([1]; n = 3, mean ± SD): 7.8 ± 0.3 µg XAD7 Extract/mL
- FRAP ([2]; n = 3, mean ± SD): 1077.2 ± 16.4 µmol TE/g XAD7 Extract
- TEAC ([3]; n = 3, mean ± SD): 8157.9 ± 22.1 µM TE/g XAD7 Extract
- ORAC ([4]; n = 3, mean ± SD): 22561.6 ± 808.8 µmol TE/g XAD7 Extract

SMILES: N=C(N)NN [aminoguanidine, Aminoguanidine]
- IC50 of TBARS generation in turkey meat [5]: 317.8 ± 20.4 µg/mL

SMILES: C[C@@H]1O[C@@H](OC[C@H]2O[C@@H](Oc3c(-c4ccc(O)c(O)c4)oc4cc(O)cc(O)c4c3=O)[C@H](O)[C@@H](O)[C@@H]2O)[C@H](O)[C@H](O)[C@H]1O [rutin, quercetin 3-O-rutinoside]
- inhibition at 50 µg/mL (α-glucosidase): 44.8 ± 1.6%
- α-Amylase Inhibiton (α-amylase): inactive
- Pancreatic Lipase Inhibition (pancreatic lipase): inactive
- viability at 100 µg/mL (AGS cells [6]): 46.4%
- Increase of total intracellular antioxidant activity (TAA) vs untreated controls (AGS cells [7]): 48.6%
